Laboratory results published in PubChem BioAssay (NCI).
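Method: 48-hour compound exposure of cells in 96-well plates, five concentrations, linear interpolation of endpoints. TGI is the concentration that stops growth completely.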

How the values were obtained:
Assay in all cases: DTP human tumour cell line panel, 48 h
SF-539 CNS = system: SF-539 CNS
HT29 colon = system: HT29 colon
UACC-257 melanoma = system: UACC-257 melanoma
TK-10 renal = system: TK-10 renal
MDA-MB-231 breast = system: MDA-MB-231 breast
SNB-75 CNS = system: SNB-75 CNS
HS 578T breast = system: HS 578T breast
NCI-H226 lung = system: NCI-H226 lung
ACHN renal = system: ACHN renal
RXF 393 renal = system: RXF 393 renal
SK-MEL-5 melanoma = system: SK-MEL-5 melanoma
SK-MEL-2 melanoma = system: SK-MEL-2 melanoma
CCRF-CEM leukemia = system: CCRF-CEM leukemia

Measured: TGI

Cc1ccc(S(=O)(=O)C2=C(C(C)C)N=NC2(C)C)cc1
> 100 µM: SF-539 CNS | HT29 colon | UACC-257 melanoma | TK-10 renal | MDA-MB-231 breast | SNB-75 CNS | HS 578T breast | NCI-H226 lung | ACHN renal | RXF 393 renal | SK-MEL-5 melanoma | SK-MEL-2 melanoma

Cc1ccc2c(c1)CC1(Cc3cccc(C)c3C1=O)C2=O (centres undefined)
> 100 µM: SF-539 CNS | HT29 colon | UACC-257 melanoma | CCRF-CEM leukemia | TK-10 renal | MDA-MB-231 breast | SNB-75 CNS | HS 578T breast | NCI-H226 lung | ACHN renal | RXF 393 renal | SK-MEL-5 melanoma

COc1ccc2nc(-c3ccccc3)c(=O)[nH]c2c1
> 100 µM: SF-539 CNS | HT29 colon | UACC-257 melanoma | CCRF-CEM leukemia | TK-10 renal | MDA-MB-231 breast | SNB-75 CNS | HS 578T breast | NCI-H226 lung | ACHN renal | RXF 393 renal | SK-MEL-5 melanoma

N/C(=N\S(=O)(=O)c1ccc(-c2ncccc2C(F)(F)F)s1)Nc1ccc(Cl)cc1
30 µM: ACHN renal
40 µM: SNB-75 CNS
27.2 µM: MDA-MB-231 breast
41.4 µM: NCI-H226 lung
> 100 µM: SF-539 CNS | SK-MEL-5 melanoma
39.3 µM: HT29 colon
14 µM: UACC-257 melanoma
26.2 µM: TK-10 renal
40.5 µM: HS 578T breast
29.3 µM: SK-MEL-2 melanoma
41.5 µM: RXF 393 renal

O=C1/C(=C\c2cccc(Oc3ccccc3)c2)S(=O)(=O)C(c2ccccc2)N1c1cccc(Cl)c1 (centres undefined)
> 100 µM: SF-539 CNS | HT29 colon | UACC-257 melanoma | TK-10 renal | MDA-MB-231 breast | SNB-75 CNS | HS 578T breast | ACHN renal | RXF 393 renal | SK-MEL-5 melanoma | SK-MEL-2 melanoma
83.9 µM: CCRF-CEM leukemia

CC(=O)O[C@@]12CO[C@@H]1CC(O)[C@@]1(C)C(=O)[C@H](O)C3=C(C)C(O)C[C@@](O)(C(OC(=O)c4ccccc4)C12)C3(C)C (some centres undefined)
1.18 µM: HS 578T breast
> 100 µM: CCRF-CEM leukemia | TK-10 renal | NCI-H226 lung | ACHN renal | RXF 393 renal | SK-MEL-5 melanoma
2.16 µM: SF-539 CNS
66 µM: MDA-MB-231 breast
23.8 µM: HT29 colon
> 26.8 µM: UACC-257 melanoma
5.7 µM: SNB-75 CNS

N[C@H](Cc1ccc2oc3cc(=O)c4ccccc4c-3nc2c1)C(=O)O
41.1 µM: SK-MEL-5 melanoma
> 100 µM: SF-539 CNS | HT29 colon | UACC-257 melanoma | TK-10 renal | MDA-MB-231 breast | SNB-75 CNS | HS 578T breast | NCI-H226 lung | ACHN renal | RXF 393 renal
56.2 µM: CCRF-CEM leukemia
